This passage reports relative viability results from the supplement of paper PMC10307832.

In one test the test system is NCI-H647. As to the kind of experiment: relative viability (nuclei count vs DMSO), 5 days (fraction); higher = more cells survive. Conditions: first compound 0.253 µM. In outline:
(§1)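 Cells from lung cancer lines were seeded into 1536-well plates and, one day later, dosed by pin tool. Treatments were either a single drug or a fixed dose of an anchor drug with five library-drug doses (not always all listed) in √10 steps. After 5 days, nuclei were stained in a one-step fixation (final 0.05% Triton X-100, 1% formaldehyde, 1 ug/ml Hoechst) and counted on 4× images, and relative viability is the treated-to-vehicle nuclei ratio, as the median of duplicate plates.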
Compound `C=C1C(=O)O[C@@H](CCCCCCCC)[C@@H]1C(=O)O` [C-75] + Nc1nc2[nH]cc(CCc3ccc(C(=O)N[C@@H](CCC(=O)O)C(=O)O)cc3)c2c(=O)[nH]1 [Pemetrexed] (partner 0.2 µM) showed a relative viability of 0.186.

Turning to `Oc1nc(-c2ccc(C(F)(F)F)cc2)nc2c1CSCC2` [XAV939] + O=C(c1cc(Cc2n[nH]c(=O)c3ccccc23)ccc1F)N1CCN(C(=O)C2CC2)CC1 [Olaparib] (partner 8 µM), the relative viability was 0.451.

`Oc1nc(-c2ccc(C(F)(F)F)cc2)nc2c1CSCC2` [XAV939] + CC(=O)c1c(C)c2cnc(Nc3ccc(N4CCNCC4)cn3)nc2n(C2CCCC2)c1=O [Palbociclib] (partner 0.5 µM) gave a relative viability of 0.298.

`C=C1C(=O)O[C@@H](CCCCCCCC)[C@@H]1C(=O)O` [C-75] + CC(=O)c1c(C)c2cnc(Nc3ccc(N4CCNCC4)cn3)nc2n(C2CCCC2)c1=O [Palbociclib] (partner 0.5 µM) yielded a relative viability of 0.384.

Still in this test, the particulars now being: first compound 0.8 µM.
`Oc1nc(-c2ccc(C(F)(F)F)cc2)nc2c1CSCC2` [XAV939] + O=C(CCCCCCC(=O)Nc1ccccc1)NO [Vorinostat] (partner 1 µM): the relative viability was 0.496.

`C=C1C(=O)O[C@@H](CCCCCCCC)[C@@H]1C(=O)O` [C-75] + Nc1nc2[nH]cc(CCc3ccc(C(=O)N[C@@H](CCC(=O)O)C(=O)O)cc3)c2c(=O)[nH]1 [Pemetrexed] (partner 0.2 µM) showed a relative viability of 0.167.

For the compound `Oc1nc(-c2ccc(C(F)(F)F)cc2)nc2c1CSCC2` [XAV939] + O=C(c1cc(Cc2n[nH]c(=O)c3ccccc23)ccc1F)N1CCN(C(=O)C2CC2)CC1 [Olaparib] (partner 8 µM), the relative viability amounted to 0.506.

`Oc1nc(-c2ccc(C(F)(F)F)cc2)nc2c1CSCC2` [XAV939] + CC(=O)c1c(C)c2cnc(Nc3ccc(N4CCNCC4)cn3)nc2n(C2CCCC2)c1=O [Palbociclib] (partner 0.5 µM): the relative viability is 0.277.

Compound `C=C1C(=O)O[C@@H](CCCCCCCC)[C@@H]1C(=O)O` [C-75] + CC(=O)c1c(C)c2cnc(Nc3ccc(N4CCNCC4)cn3)nc2n(C2CCCC2)c1=O [Palbociclib] (partner 0.5 µM) yielded a relative viability of 0.394.

The same test, now with this note: first compound 2.53 µM.
With `Oc1nc(-c2ccc(C(F)(F)F)cc2)nc2c1CSCC2` [XAV939] + O=C(CCCCCCC(=O)Nc1ccccc1)NO [Vorinostat] (partner 1 µM), the relative viability stood at 0.207.

Turning to `C=C1C(=O)O[C@@H](CCCCCCCC)[C@@H]1C(=O)O` [C-75] + Nc1nc2[nH]cc(CCc3ccc(C(=O)N[C@@H](CCC(=O)O)C(=O)O)cc3)c2c(=O)[nH]1 [Pemetrexed] (partner 0.2 µM), the relative viability is 0.171.

In turn, `Oc1nc(-c2ccc(C(F)(F)F)cc2)nc2c1CSCC2` [XAV939] + O=C(c1cc(Cc2n[nH]c(=O)c3ccccc23)ccc1F)N1CCN(C(=O)C2CC2)CC1 [Olaparib] (partner 8 µM) registered a relative viability of 0.439.

The compound `Oc1nc(-c2ccc(C(F)(F)F)cc2)nc2c1CSCC2` [XAV939] + CC(=O)c1c(C)c2cnc(Nc3ccc(N4CCNCC4)cn3)nc2n(C2CCCC2)c1=O [Palbociclib] (partner 0.5 µM) came in with a relative viability of 0.293.

With `C=C1C(=O)O[C@@H](CCCCCCCC)[C@@H]1C(=O)O` [C-75] + CC(=O)c1c(C)c2cnc(Nc3ccc(N4CCNCC4)cn3)nc2n(C2CCCC2)c1=O [Palbociclib] (partner 0.5 µM), the relative viability worked out at 0.239.

Still in this test, the particulars now being: first compound 8 µM.
As for `C=C1C(=O)O[C@@H](CCCCCCCC)[C@@H]1C(=O)O` [C-75] + Nc1nc2[nH]cc(CCc3ccc(C(=O)N[C@@H](CCC(=O)O)C(=O)O)cc3)c2c(=O)[nH]1 [Pemetrexed] (partner 0.2 µM), the relative viability was found to be 0.128.

Turning to `C=C1C(=O)O[C@@H](CCCCCCCC)[C@@H]1C(=O)O` [C-75] + CC(=O)c1c(C)c2cnc(Nc3ccc(N4CCNCC4)cn3)nc2n(C2CCCC2)c1=O [Palbociclib] (partner 0.5 µM), the relative viability turned out to be 0.236.

In another test the test system is NCI-H838. Described as above. The note with it: first compound 0.08 µM. The method in brief: as §1
Regarding `Oc1nc(-c2ccc(C(F)(F)F)cc2)nc2c1CSCC2` [XAV939] + O=C(CCCCCCC(=O)Nc1ccccc1)NO [Vorinostat] (partner 1 µM), the relative viability was 0.685.

`C=C1C(=O)O[C@@H](CCCCCCCC)[C@@H]1C(=O)O` [C-75] + Nc1nc2[nH]cc(CCc3ccc(C(=O)N[C@@H](CCC(=O)O)C(=O)O)cc3)c2c(=O)[nH]1 [Pemetrexed] (partner 0.2 µM) had a relative viability of 0.224.

`Oc1nc(-c2ccc(C(F)(F)F)cc2)nc2c1CSCC2` [XAV939] + O=C(c1cc(Cc2n[nH]c(=O)c3ccccc23)ccc1F)N1CCN(C(=O)C2CC2)CC1 [Olaparib] (partner 8 µM) showed a relative viability of 0.755.

In turn, `Oc1nc(-c2ccc(C(F)(F)F)cc2)nc2c1CSCC2` [XAV939] + CC(=O)c1c(C)c2cnc(Nc3ccc(N4CCNCC4)cn3)nc2n(C2CCCC2)c1=O [Palbociclib] (partner 0.5 µM) had a relative viability of 0.217.

`C=C1C(=O)O[C@@H](CCCCCCCC)[C@@H]1C(=O)O` [C-75] + CC(=O)c1c(C)c2cnc(Nc3ccc(N4CCNCC4)cn3)nc2n(C2CCCC2)c1=O [Palbociclib] (partner 0.5 µM) gave a relative viability of 0.227.

The same test, now with this note: first compound 0.253 µM.
As to `Oc1nc(-c2ccc(C(F)(F)F)cc2)nc2c1CSCC2` [XAV939] + O=C(CCCCCCC(=O)Nc1ccccc1)NO [Vorinostat] (partner 1 µM), the relative viability was 0.609.

In turn, `C=C1C(=O)O[C@@H](CCCCCCCC)[C@@H]1C(=O)O` [C-75] + Nc1nc2[nH]cc(CCc3ccc(C(=O)N[C@@H](CCC(=O)O)C(=O)O)cc3)c2c(=O)[nH]1 [Pemetrexed] (partner 0.2 µM) displayed a relative viability of 0.265.

Take `Oc1nc(-c2ccc(C(F)(F)F)cc2)nc2c1CSCC2` [XAV939] + O=C(c1cc(Cc2n[nH]c(=O)c3ccccc23)ccc1F)N1CCN(C(=O)C2CC2)CC1 [Olaparib] (partner 8 µM): the relative viability was 0.662.

As for `Oc1nc(-c2ccc(C(F)(F)F)cc2)nc2c1CSCC2` [XAV939] + CC(=O)c1c(C)c2cnc(Nc3ccc(N4CCNCC4)cn3)nc2n(C2CCCC2)c1=O [Palbociclib] (partner 0.5 µM), the relative viability worked out at 0.203.

`C=C1C(=O)O[C@@H](CCCCCCCC)[C@@H]1C(=O)O` [C-75] + CC(=O)c1c(C)c2cnc(Nc3ccc(N4CCNCC4)cn3)nc2n(C2CCCC2)c1=O [Palbociclib] (partner 0.5 µM) yielded a relative viability of 0.206.

The same test, now with this note: first compound 0.8 µM.
As to `Oc1nc(-c2ccc(C(F)(F)F)cc2)nc2c1CSCC2` [XAV939] + O=C(CCCCCCC(=O)Nc1ccccc1)NO [Vorinostat] (partner 1 µM), the relative viability was 0.658.

With `C=C1C(=O)O[C@@H](CCCCCCCC)[C@@H]1C(=O)O` [C-75] + Nc1nc2[nH]cc(CCc3ccc(C(=O)N[C@@H](CCC(=O)O)C(=O)O)cc3)c2c(=O)[nH]1 [Pemetrexed] (partner 0.2 µM), the relative viability came out at 0.262.

`Oc1nc(-c2ccc(C(F)(F)F)cc2)nc2c1CSCC2` [XAV939] + O=C(c1cc(Cc2n[nH]c(=O)c3ccccc23)ccc1F)N1CCN(C(=O)C2CC2)CC1 [Olaparib] (partner 8 µM) had a relative viability of 0.597.

As to `Oc1nc(-c2ccc(C(F)(F)F)cc2)nc2c1CSCC2` [XAV939] + CC(=O)c1c(C)c2cnc(Nc3ccc(N4CCNCC4)cn3)nc2n(C2CCCC2)c1=O [Palbociclib] (partner 0.5 µM), the relative viability was determined as 0.179.
